# Assay results as given in patent publication US8012959B2, “Diaminopyrimidinecarboxamide derivative” (Astellas Pharma Inc., priority 2002, dated 2011).
# Test system: antigen-induced eosinophil infiltration
# Test: Mouse asthma model (OA-sensitized, antigen-induced eosinophil infiltration in alveolar lavage fluid)
# Format: in vivo
# Details: hydrochloride, oral administration, 1 mg/kg, for 3 days, female Balb/c mice
# Procedure: Evaluation Using Mouse Asthma Model
# Active sensitization of female Balb/c mice were carried out by intraperitoneally administering ovalbumin (OA) and an adjuvant, aluminum hydroxide gel (alum), twice. Mice were exposed to OA by inhalation 12 days after the initial sensitization and sacrificed by bloodletting 72 hours after the exposure, and then alveolar lavage was carried out. A compound to be tested or a control, 0.5% methyl cellulose, was orally administered for 3 days from before the OA exposure to before the alveolar lavage. After the measurement of total white blood cell count in the alveolar lavage fluid, cell smear preparations were stained to calculate existing ratio of eosinophil based on its morphological characteristics. The total number of eosinophils was calculated from the total white blood cell count and existing ratio of respective kinds of cells.
structure (smiles),measurement,value
"NC(=O)c1cnc(Nc2ccc(N3CCOCC3)cc2)nc1NCc1ccccc1 [Example 3, 4-benzylamino-2-{[4-(morpholin-4-yl)phenyl]amino}pyrimidine-5-carboxamide]",inhibition of antigen-induced eosinophil infiltration,about 60%
